Measured values as given in patent US9763445B2, “Safened herbicidal compositions comprising a pyridine carboxylic acid herbicide” (Dow AgroSciences, LLC, priority 2014, dated 2017).
Like-named read-outs stand apart in the source and are kept apart here.

What was measured:
common poppy (PAPRH) = test: Postemergence greenhouse trial, % visual injury on common poppy; format: in vivo, Papaver rhoeas
Method in brief: (§1)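 Herbicide rates g ae/ha, safener (cloquintocet-mexyl) rates g ai/ha; spray carrier 1.5% v/v crop oil concentrate, 187 L/ha, 2nd–3rd leaf stage. Rating: visual % injury at 20-22 d.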

kochia (KCHSC) = test: Postemergence greenhouse trial, % visual injury on kochia; format: in vivo, Kochia scoparia
Method in brief: as §1

[1] = tested on: purple deadnettle (LAMPU); test: Postemergence greenhouse trial, % visual injury on purple deadnettle; format: in vivo, Lamium purpureum
Method in brief: as §1

spring wheat (TRZAS) = test: Postemergence greenhouse trial, % visual injury on spring wheat; format: in vivo, Triticum aestivum
Method in brief: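 Injury was scored visually (0 = none, 100 = complete kill) 20–22 d after track-sprayer application at 187 L/ha, compared with solvent-sprayed controls. Test plants at the 2–3 true leaf stage; herbicide (g ae/ha) plus cloquintocet-mexyl safener (g ai/ha) in crop-oil-containing spray; expected mixture response by Colby.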

winter rape (BRSNW) = test: Postemergence greenhouse trial, % visual injury on winter rape; format: in vivo, Brassica napus
Method in brief: (§2)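 Visual injury, 0 (none) to 100 (complete kill), rated 20-22 d after overhead track-sprayer application at 187 L/ha; Colby's equation gave expected mixture responses. Herbicide (g ae/ha) and cloquintocet-mexyl safener (g ai/ha) diluted in aqueous 1.5% v/v Agri-dex, applied to weeds at 2–3 true leaves.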

thistle (CIRAR) = test: Postemergence greenhouse trial, % visual injury on thistle; format: in vivo, Cirsium arvense
Method in brief: as §2

[2] = Brassica napus, post-emergence, alone, 35 g/ha, read-out: % visual injury, Ob
[3] = Cirsium arvense, post-emergence, alone, 35 g/ha, read-out: % visual injury, Ob

Structure (SMILES): Nc1c(F)c(-c2ccc3cc[nH]c3c2F)nc(C(=O)O)c1Cl [compound 1]
- pest or weed control at 4.375 g/ha (common poppy (PAPRH); Papaver rhoeas, post-emergence, alone, 4.375 g/ha, read-out: % visual injury, Ob): 97%
- pest or weed control at 8.75 g/ha (common poppy (PAPRH); Papaver rhoeas, post-emergence, alone, 8.75 g/ha, read-out: % visual injury, Ob): 99%
- pest or weed control at 17.5 g/ha (common poppy (PAPRH); Papaver rhoeas, post-emergence, alone, 17.5 g/ha, read-out: % visual injury, Ob): 100%
- pest or weed control at 35 g/ha (common poppy (PAPRH); Papaver rhoeas, post-emergence, alone, 35 g/ha, read-out: % visual injury, Ob): 100%
- pest or weed control at 70 g/ha (common poppy (PAPRH); Papaver rhoeas, post-emergence, alone, 70 g/ha, read-out: % visual injury, Ob): 100%
- pest or weed control at 4.375 g/ha (kochia (KCHSC); Bassia scoparia, post-emergence, alone, 4.375 g/ha, read-out: % visual injury, Ob): 67%
- pest or weed control at 8.75 g/ha (kochia (KCHSC); Bassia scoparia, post-emergence, alone, 8.75 g/ha, read-out: % visual injury, Ob): 72%
- pest or weed control at 17.5 g/ha (kochia (KCHSC); Bassia scoparia, post-emergence, alone, 17.5 g/ha, read-out: % visual injury, Ob): 93%
- pest or weed control at 35 g/ha (kochia (KCHSC); Bassia scoparia, post-emergence, alone, 35 g/ha, read-out: % visual injury, Ob): 92%
- pest or weed control at 70 g/ha (kochia (KCHSC); Bassia scoparia, post-emergence, alone, 70 g/ha, read-out: % visual injury, Ob): 97%
- % visual injury, Ob ([1]; alone, 4.375 g/ha): 76%
- % visual injury, Ob ([1]; alone, 8.75 g/ha): 86%
- % visual injury, Ob ([1]; alone, 17.5 g/ha): 90%
- % visual injury, Ob ([1]; alone, 35 g/ha): 98%
- % visual injury, Ob ([1]; alone, 70 g/ha): 100%
- % visual injury, Ob (spring wheat (TRZAS); alone, 4.375 g/ha): 13%
- % visual injury, Ob (spring wheat (TRZAS); alone, 8.75 g/ha): 16%
- % visual injury, Ob (spring wheat (TRZAS); alone, 17.5 g/ha): 31%
- % visual injury, Ob (spring wheat (TRZAS); alone, 35 g/ha): 39%
- % visual injury, Ob (spring wheat (TRZAS); alone, 70 g/ha): 51%
- plant injury at 4.375 g/ha (winter rape (BRSNW); Brassica napus, post-emergence, alone, 4.375 g/ha, read-out: % visual injury, Ob): 79%
- plant injury at 8.75 g/ha (winter rape (BRSNW); Brassica napus, post-emergence, alone, 8.75 g/ha, read-out: % visual injury, Ob): 84%
- plant injury at 17.5 g/ha (winter rape (BRSNW); Brassica napus, post-emergence, alone, 17.5 g/ha, read-out: % visual injury, Ob): 96%
- plant injury at 35 g/ha (winter rape (BRSNW); [2]): 99%
- plant injury at 70 g/ha (winter rape (BRSNW); Brassica napus, post-emergence, alone, 70 g/ha, read-out: % visual injury, Ob): 100%
- pest or weed control at 4.375 g/ha (thistle (CIRAR); Cirsium arvense, post-emergence, alone, 4.375 g/ha, read-out: % visual injury, Ob): 35%
- pest or weed control at 8.75 g/ha (thistle (CIRAR); Cirsium arvense, post-emergence, alone, 8.75 g/ha, read-out: % visual injury, Ob): 62%
- pest or weed control at 17.5 g/ha (thistle (CIRAR); Cirsium arvense, post-emergence, alone, 17.5 g/ha, read-out: % visual injury, Ob): 80%
- pest or weed control at 35 g/ha (thistle (CIRAR); [3]): 90%
- pest or weed control at 70 g/ha (thistle (CIRAR); Cirsium arvense, post-emergence, alone, 70 g/ha, read-out: % visual injury, Ob): 96%

Structure (SMILES): Nc1c(F)c(-c2ccc3cc[nH]c3c2F)nc(C(=O)OCc2ccccc2)c1Cl [compound 2]
- % visual injury, observed (Ob) (common poppy (PAPRH); PAPRH, compound 2 4.380 + CQC-m 0 g/ha): 93%
- % visual injury, observed (Ob) (common poppy (PAPRH); PAPRH, compound 2 8.75 + CQC-m 0 g/ha): 100%
- % visual injury, observed (Ob) (common poppy (PAPRH); PAPRH, compound 2 17.5 + CQC-m 0 g/ha): 100%
- % visual injury, observed (Ob) (common poppy (PAPRH); PAPRH, compound 2 35 + CQC-m 0 g/ha): 100%
- % visual injury, observed (Ob) (common poppy (PAPRH); PAPRH, compound 2 70 + CQC-m 0 g/ha): 100%
- % visual injury, observed (Ob) (kochia (KCHSC); KCHSC, compound 2 4.380 + CQC-m 0 g/ha): 93%
- % visual injury, observed (Ob) (kochia (KCHSC); KCHSC, compound 2 8.75 + CQC-m 0 g/ha): 95%
- % visual injury, observed (Ob) (kochia (KCHSC); KCHSC, compound 2 17.5 + CQC-m 0 g/ha): 98%
- % visual injury, observed (Ob) (kochia (KCHSC); KCHSC, compound 2 35 + CQC-m 0 g/ha): 99%
- % visual injury, observed (Ob) (kochia (KCHSC); KCHSC, compound 2 70 + CQC-m 0 g/ha): 100%
- % visual injury, observed (Ob) (kochia (KCHSC); KCHSC, compound 2 140 + CQC-m 0 g/ha): 95%
- % visual injury, observed (Ob) ([1]; LAMPU, compound 2 4.380 + CQC-m 0 g/ha): 85%
- % visual injury, observed (Ob) ([1]; LAMPU, compound 2 8.75 + CQC-m 0 g/ha): 93%
- % visual injury, observed (Ob) ([1]; LAMPU, compound 2 17.5 + CQC-m 0 g/ha): 95%
- % visual injury, observed (Ob) ([1]; LAMPU, compound 2 35 + CQC-m 0 g/ha): 100%
- % visual injury, observed (Ob) ([1]; LAMPU, compound 2 70 + CQC-m 0 g/ha): 100%
- % visual injury, Ob (spring wheat (TRZAS); alone, 35 g/ha): 15%
- % visual injury, observed (Ob) (winter rape (BRSNW); BRSNW, compound 2 4.380 + CQC-m 0 g/ha): 84%
- % visual injury, observed (Ob) (winter rape (BRSNW); BRSNW, compound 2 8.75 + CQC-m 0 g/ha): 88%
- % visual injury, observed (Ob) (winter rape (BRSNW); BRSNW, compound 2 17.5 + CQC-m 0 g/ha): 55%
- % visual injury, observed (Ob) (winter rape (BRSNW); BRSNW, compound 2 35 + CQC-m 0 g/ha): 100%
- % visual injury, observed (Ob) (winter rape (BRSNW); BRSNW, compound 2 70 + CQC-m 0 g/ha): 100%
- plant injury at 35 g/ha (winter rape (BRSNW); [2]): 100%
- % visual injury, observed (Ob) (thistle (CIRAR); CIRAR, compound 2 4.380 + CQC-m 0 g/ha): 35%
- % visual injury, observed (Ob) (thistle (CIRAR); CIRAR, compound 2 8.75 + CQC-m 0 g/ha): 63%
- % visual injury, observed (Ob) (thistle (CIRAR); CIRAR, compound 2 17.5 + CQC-m 0 g/ha): 80%
- % visual injury, observed (Ob) (thistle (CIRAR); CIRAR, compound 2 35 + CQC-m 0 g/ha): 99%
- % visual injury, observed (Ob) (thistle (CIRAR); CIRAR, compound 2 70 + CQC-m 0 g/ha): 99%
- pest or weed control at 35 g/ha (thistle (CIRAR); [3]): 70%

Structure (SMILES): CCCCOC(=O)c1nc(-c2ccc3cc[nH]c3c2F)c(F)c(N)c1Cl [compound 9]
- pest or weed control at 4.38 g/ha (common poppy (PAPRH); Papaver rhoeas, post-emergence, PAPRH, compound 4.380 g/ha, CQC-m 0, read-out: % visual injury, Ob): 90%
- pest or weed control at 8.75 g/ha (common poppy (PAPRH); Papaver rhoeas, post-emergence, PAPRH, compound 8.75 g/ha, CQC-m 0, read-out: % visual injury, Ob): 87%
- pest or weed control at 17.5 g/ha (common poppy (PAPRH); Papaver rhoeas, post-emergence, PAPRH, compound 17.5 g/ha, CQC-m 0, read-out: % visual injury, Ob): 100%
- pest or weed control at 35 g/ha (common poppy (PAPRH); Papaver rhoeas, post-emergence, PAPRH, compound 35 g/ha, CQC-m 0, read-out: % visual injury, Ob): 93%
- pest or weed control at 70 g/ha (common poppy (PAPRH); Papaver rhoeas, post-emergence, PAPRH, compound 70 g/ha, CQC-m 0, read-out: % visual injury, Ob): 100%
- pest or weed control at 4.38 g/ha (kochia (KCHSC); Bassia scoparia, post-emergence, KCHSC, compound 4.380 g/ha, CQC-m 0, read-out: % visual injury, Ob): 60%
- pest or weed control at 8.75 g/ha (kochia (KCHSC); Bassia scoparia, post-emergence, KCHSC, compound 8.75 g/ha, CQC-m 0, read-out: % visual injury, Ob): 60%
- pest or weed control at 17.5 g/ha (kochia (KCHSC); Bassia scoparia, post-emergence, KCHSC, compound 17.5 g/ha, CQC-m 0, read-out: % visual injury, Ob): 85%
- pest or weed control at 35 g/ha (kochia (KCHSC); Bassia scoparia, post-emergence, KCHSC, compound 35 g/ha, CQC-m 0, read-out: % visual injury, Ob): 100%
- pest or weed control at 70 g/ha (kochia (KCHSC); Bassia scoparia, post-emergence, KCHSC, compound 70 g/ha, CQC-m 0, read-out: % visual injury, Ob): 100%
- % visual injury, Ob ([1]; LAMPU, compound 4.380 g/ha, CQC-m 0): 83%
- % visual injury, Ob ([1]; LAMPU, compound 8.75 g/ha, CQC-m 0): 90%
- % visual injury, Ob ([1]; LAMPU, compound 17.5 g/ha, CQC-m 0): 100%
- % visual injury, Ob ([1]; LAMPU, compound 35 g/ha, CQC-m 0): 100%
- % visual injury, Ob ([1]; LAMPU, compound 70 g/ha, CQC-m 0): 100%
- % visual injury, Ob (spring wheat (TRZAS); TRZAS, compound 4.380 g/ha, CQC-m 0): 10%
- % visual injury, Ob (spring wheat (TRZAS); TRZAS, compound 8.75 g/ha, CQC-m 0): 25%
- % visual injury, Ob (spring wheat (TRZAS); TRZAS, compound 17.5 g/ha, CQC-m 0): 30%
- % visual injury, Ob (spring wheat (TRZAS); TRZAS, compound 35 g/ha, CQC-m 0): 50%
- % visual injury, Ob (spring wheat (TRZAS); TRZAS, compound 70 g/ha, CQC-m 0): 60%
- plant injury at 4.38 g/ha (winter rape (BRSNW); Brassica napus, post-emergence, BRSNW, compound 4.380 g/ha, CQC-m 0, read-out: % visual injury, Ob): 60%
- plant injury at 8.75 g/ha (winter rape (BRSNW); Brassica napus, post-emergence, BRSNW, compound 8.75 g/ha, CQC-m 0, read-out: % visual injury, Ob): 60%
- plant injury at 17.5 g/ha (winter rape (BRSNW); Brassica napus, post-emergence, BRSNW, compound 17.5 g/ha, CQC-m 0, read-out: % visual injury, Ob): 90%
- plant injury at 35 g/ha (winter rape (BRSNW); Brassica napus, post-emergence, BRSNW, compound 35 g/ha, CQC-m 0, read-out: % visual injury, Ob): 98%
- plant injury at 70 g/ha (winter rape (BRSNW); Brassica napus, post-emergence, BRSNW, compound 70 g/ha, CQC-m 0, read-out: % visual injury, Ob): 100%
- pest or weed control at 4.38 g/ha (thistle (CIRAR); Cirsium arvense, post-emergence, CIRAR, compound 4.380 g/ha, CQC-m 0, read-out: % visual injury, Ob): 10%
- pest or weed control at 8.75 g/ha (thistle (CIRAR); Cirsium arvense, post-emergence, CIRAR, compound 8.75 g/ha, CQC-m 0, read-out: % visual injury, Ob): 30%
- pest or weed control at 17.5 g/ha (thistle (CIRAR); Cirsium arvense, post-emergence, CIRAR, compound 17.5 g/ha, CQC-m 0, read-out: % visual injury, Ob): 70%
- pest or weed control at 35 g/ha (thistle (CIRAR); Cirsium arvense, post-emergence, CIRAR, compound 35 g/ha, CQC-m 0, read-out: % visual injury, Ob): 95%
- pest or weed control at 70 g/ha (thistle (CIRAR); Cirsium arvense, post-emergence, CIRAR, compound 70 g/ha, CQC-m 0, read-out: % visual injury, Ob): 97%
